What is called pIC50 is −log10 of the IC50, conventionally taken in molar units.

pIC50: −log10 of the molar value.

The target of the experiment is T1, human mineralocorticoid receptor (MR) (Homo sapiens, UniProt P08235).
T1 construct: expressed in transfected cells; host or cells: CHO K1
T1 sequence (P08235 734-984 limits assumed): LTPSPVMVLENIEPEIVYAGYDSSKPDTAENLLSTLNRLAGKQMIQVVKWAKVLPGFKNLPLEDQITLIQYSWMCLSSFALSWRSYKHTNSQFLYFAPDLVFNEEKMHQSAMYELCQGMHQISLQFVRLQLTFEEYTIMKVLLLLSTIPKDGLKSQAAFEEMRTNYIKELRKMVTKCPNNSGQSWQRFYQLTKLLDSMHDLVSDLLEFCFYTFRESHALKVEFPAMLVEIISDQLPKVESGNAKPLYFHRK
Kind of experiment: Cellular in vitro assay to determine the inhibitory MR activity (GAL4-MR chimera, luciferase reporter, CHO K1 cells). The experiment is classed as cell-based. The conditions noted are these: recombinant CHO K1 cells, GAL4-MR ligand-binding domain chimera, agonist aldosterone, luciferase readout. The text has this: 1. Cellular In Vitro Assay to Determine the Inhibitory MR Activity and MR Selectivity Compared with other Steroid Hormone Receptors
Antagonists of the human mineralocorticoid receptor (MR) are identified, and the activity of the compounds described herein is quantified with the aid of a recombinant cell line. The cell is originally derived from a hamster ovary epithelial cell (Chinese Hamster Ovary, CHO K1, ATCC: American Type Culture Collection, VA 20108, USA).
An established chimera system in which the ligand-binding domains of human steroid hormone receptors are fused to the DNA-binding domain of the yeast transcription factor GAL4 is used in this CHO K1 cell line. The GAL4-steroid hormone receptor chimeras produced in this way are cotransfected and stably expressed with a reporter construct in the CHO cells.
To generate the GAL4-steroid hormone receptor chimeras, the GAL4 DNA binding domain (amino acids 1-147) from the vector pFC2-dbd (from Stratagene) is cloned with the PCR-amplified ligand-binding domains of the mineralocorticoid receptor (MR, amino acids 734-985), of the glucocorticoid receptor (GR, amino acids 443-777), of the progesterone receptor (PR, amino acids 680-933) and of the androgen receptor (AR, amino acids 667-919) into the vector pIRES2 (from Clontech). The reporter construct, which comprises five copies of the GAL4 binding site upstream of a thymidine kinase promoter, leads to expression of firefly-luciferase (Photinus pyralis) after activation and binding of the GAL4-steroid hormone receptor chimeras by the respective specific agonists aldosterone (MR), dexamethasone (GR), progesterone (PR) and dihydrotestosterone (AR).
The MR, GR, PR and AR cells are plated out in medium (Optimem, 2.5% FCS, 2 mM glutamine, 10 mM HEPES) in 96- (or 384- or 1536-) well microtiter plates on the day before the assay and are kept in a cell incubator (96% humidity, 5% v/v CO2, 37° C.). On the day of the assay, the substances to be tested are taken up in the abovementioned medium and added to the cells. About 10 to 30 minutes after addition of the test substances, the respective specific agonists of the steroid hormone receptors are added. After a further incubation time of 5 to 6 hours, the luciferase activity is measured with the aid of a video camera. The measured relative light units as a function of the substance concentration result in a sigmoidal stimulation curve. The IC50 values are calculated with the aid of the GraphPad PRISM computer program (Version 3.02).
(In general: A reporter such as luciferase makes a cellular process visible.)
Consider `CCOc1nccc2c1C(c1cccc3c(=O)cc(C)oc13)C(C#N)=C(C)N2` (stereo not drawn) [Example 4, 5-Ethoxy-2-methyl-4-(2-methyl-4-oxo-4H-chromen-8-yl)-1,4-dihydro-1,6-naphthyridine-3-carbo-nitrite], for which the pIC50 is 6.56.

Consider `CCS(=O)(=O)Oc1nccc2c1C(c1cccc3c(=O)cc(C)oc13)C(C(C)=O)=C(C)N2` (stereo not drawn) [Example 10, 3-Acetyl-2-methyl-4-(2-methyl-4-oxo-4H-chromen-8-yl)-1,4-dihydro-1,6-naphthyridin-5-yl ethane-sulfonate], for which the pIC50 was 7.12.

In the case of `CCOc1nccc2c1C(c1ccc(C#N)cc1OC(F)(F)F)C(C(C)=O)=C(C)N2` (stereo not drawn) [Example 21, 4-(3-Acetyl-5-ethoxy-2-methyl-1,4-dihydro-1,6-naphthyridin-4-yl)-3-(trifluoromethoxy)benzonitrile], the negative-log IC50 (pIC50) is 7.52.

For `CCOc1nccc2c1C(c1ccc(C#N)cc1CC)C(C(C)=O)=C(C)N2` (stereo not drawn) [Example 24, 4-(3-Acetyl-5-ethoxy-2-methyl-1,4-dihydro-1,6-naphthyridin-4-yl)-3-ethylbenzonitrile], the pIC50 was 7.51.

As to `CCOc1nccc2c1C(c1ccc(C#N)cc1OC)C(C#N)=C(C)N2` (stereo not drawn) [Example 25, 4-(4-Cyano-2-methoxyphenyl)-5-ethoxy-2-methyl-1,4-dihydro-1,6-naphthyridine-3-carbonitrile], the pIC50 was 7.06.

Take `CCOc1nccc2c1C(c1ccc(C#N)c3ccccc13)C(C(C)=O)=C(C)N2` (stereo not drawn) [Example 32, 4-(3-Acetyl-5-ethoxy-2-methyl-1,4-dihydro-1,6-naphthyridin-4-yl)-1-naphthonitrile]: the pIC50 is 8.40.

With `CCOc1nccc2c1C(c1ccc(C#N)cc1OC)C(C#N)=C(C(F)(F)F)N2` (stereo not drawn) [Example 33, 4-(4-Cyano-2-methoxyphenyl)-5-ethoxy-2-(trifluoromethyl)-1,4-dihydro-1,6-naphthyridine-3-carbonitrile], the pIC50 is 7.46.

Regarding `CCOc1nc(C)cc2c1C(c1ccc(C#N)cc1OC)C(C#N)=C(C)N2` (stereo not drawn) [Example 35, 4-(4-Cyano-2-methoxyphenyl)-5-ethoxy-2,7-dimethyl-1,4-dihydro-1,6-naphthyridine-3-carbonitrile], the negative-log IC50 (pIC50) was 6.91.

Regarding `CCOc1ncc(C)c2c1C(c1ccc(C#N)cc1OC)C(C#N)=C(C)N2` (stereo not drawn) [Example 37, 4-(4-Cyano-2-methoxyphenyl)-5-ethoxy-2,8-dimethyl-1,4-dihydro-1,6-naphthyridine-3-carbonitrile], the pIC50 was 7.14.
